Assay results as given in publication PMC2920814 (PLoS ONE, 2010).
Where “and” joins values, the source holds several entries; their conditions need not be identical. Equal entries are not always repeated. Entries after “also recorded” stand apart in the source; their conditions may differ.

Assays:
Erk2 [1] = biological target: Erk2 (Mus musculus, UniProt P63085); assay: Affinity chromatography on immobilized drugs, Western blotting; type: binding; conditions: adult mouse brain extract 500 µg, sepharose beads
pyridoxal kinase (PDXK) = biological target: T1, pyridoxal kinase (PDXK) (Mus musculus, UniProt Q8K183); assay: as above; type: binding; conditions: adult mouse brain extract 500 µg, sepharose beads
T1 sequence (Q8K183 1-312): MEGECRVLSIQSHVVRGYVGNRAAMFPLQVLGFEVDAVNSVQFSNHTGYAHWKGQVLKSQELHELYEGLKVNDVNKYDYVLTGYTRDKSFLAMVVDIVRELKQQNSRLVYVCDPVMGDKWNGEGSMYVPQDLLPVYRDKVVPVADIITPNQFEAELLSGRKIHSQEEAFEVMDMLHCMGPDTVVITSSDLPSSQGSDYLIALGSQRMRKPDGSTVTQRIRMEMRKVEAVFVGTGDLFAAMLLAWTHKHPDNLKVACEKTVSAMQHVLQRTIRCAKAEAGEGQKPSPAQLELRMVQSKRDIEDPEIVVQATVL

[2] = Blood brain barrier permeability, brain and plasma level after IV injection (LC/MS/MS); type: in vivo; conditions: SD, rat, brain, sampling time 15 min, healthy adult rats, n = 2
Method: Dosed animals were sacrificed at 15 min after the end of the intravenous injection. Blood were collected through the retro-orbital sinus using a capillary tube. Animals were then perfused with saline solution into the heart to […] the brain. Brain was collected, and homogenized. Both plasma and brain samples were analyzed using LC/MS/MS determination, according to ADME-Bioanalysis (Vergeze, France) procedures.

[3] = tested on: E18 mixed hippocampal cell cultures; assay: Kainate (KA)-induced neuronal excitotoxicity, PI staining; type: cell-based, rat (Wistar); conditions: KA 200 µM for 5 hrs; for neuroprotective effect on KA-induced neuronal death (relative neuronal death): 10 div cultures, compound added with KA, 0.05 to 50 µM
[4] = tested on: permanent focal cerebral ischemia (pMCAo) in adult mice; assay: Permanent middle cerebral artery occlusion (pMCAo), infarct volumes by TTC staining; type: in vivo, mouse (C57 b/6); conditions: 3 hrs after occlusion
CK1 = tested on: CK1; design: method as in PMID 15975926, PMID 15985434; conditions: previously described; ref [30], [31]; cited from earlier work
ERK2 [5] = tested on: ERK2; design: method as in PMID 15975926, PMID 15985434; conditions: previously described; ref [30], [31]; cited from earlier work
CDK1/CyclB = tested on: CDK1/CyclB; design: method as in PMID 15975926, PMID 15985434; conditions: previously described; ref [30], [31]; cited from earlier work
CDK2/CyclE = tested on: CDK2/CyclE; design: method as in PMID 15975926, PMID 15985434; conditions: previously described; ref [30], [31]; cited from earlier work
CDK5/p25 = tested on: CDK5/p25; design: method as in PMID 15975926, PMID 15985434; conditions: previously described; ref [30], [31]; cited from earlier work
[6] = ICV infusion 500 µM starting 48 hrs before pMCAo
[7] = IP 25 mg/kg 15 min pre- and 1 hr post-MCAo, 25 mg/kg

Chain of Erk2 (P63085 whole entry): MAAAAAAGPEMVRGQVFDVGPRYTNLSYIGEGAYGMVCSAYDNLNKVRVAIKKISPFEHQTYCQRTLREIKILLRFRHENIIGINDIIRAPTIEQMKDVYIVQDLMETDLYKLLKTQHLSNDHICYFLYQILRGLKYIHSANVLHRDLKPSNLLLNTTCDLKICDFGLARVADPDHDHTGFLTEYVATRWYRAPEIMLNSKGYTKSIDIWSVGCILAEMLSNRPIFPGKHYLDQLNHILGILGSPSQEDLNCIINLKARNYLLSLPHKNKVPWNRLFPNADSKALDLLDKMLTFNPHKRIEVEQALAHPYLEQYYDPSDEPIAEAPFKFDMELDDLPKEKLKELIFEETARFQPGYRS

Compound | binding of Erk2 to immobilized compound (Erk2 [1]) | binding of PDXK to immobilized compound (pyridoxal kinase (PDXK)) | Kp at 0.25 h ([2]; 20 mg/kg, i.v. 20 mg/kg) | Kp at 0.25 h ([2]; 30 mg/kg, i.v. 30 mg/kg) | neuroprotective effect compared to the (R) stereoisomer ([3]; 0.5 µM) | decrease of the total infarct volume compared to vehicle [4, 6] | ischemic core volume compared to vehicle [4, 6] | reduction of the ischemic (hypometabolic) zone volume compared to vehicle [4, 6] | ischemic core volume compared to vehicle ([4]; IP 25 mg/kg 15 min pre- and 1 hr post-MCAo) | decrease of the ischemic (hypometabolic) zone volume compared to vehicle [4, 7] | decrease of the total infarct volume compared to vehicle [4, 7] | IC50 (CK1) | IC50 (ERK2 [5]) | IC50 (CDK1/CyclB) | neuroprotective effect on KA-induced neuronal death (relative neuronal death) [3] | neuroprotective effect on KA-induced neuronal death (relative neuronal death) ([3]; listed as N^6-methyl-(R)-roscovitine) | IC50 (CDK2/CyclE) | IC50 (CDK5/p25)
CC[C@H](CO)Nc1nc(NCc2ccccc2)c2ncn(C(C)C)c2n1 [(R)-roscovitine] | bind | bind | – | – | – | – | – | – | – | – | – | – | – | – | – | – | – | –
CC[C@@H](CO)Nc1nc(NCc2ccccc2)c2ncn(C(C)C)c2n1 [(S)-roscovitine] | preferentially bound and bind | did not bind | 0.15 | 0.17 | significantly stronger neuroprotective effect; also recorded: significantly increased neuroprotective activity | 28% and 27.7% | comparable | 36% and 35.8% | comparable | 39% and 38.9% | 31% and 30.7% | – | – | – | – | – | – | –
CC[C@H](CO)Nc1nc(N(C)Cc2ccccc2)c2ncn(C(C)C)c2n1 [N^6-methyl (R)-roscovitine] | – | bind | – | – | – | – | – | – | – | – | – | > 1000 µM | > 1000 µM | 45 µM | no significant neuroprotective effect | did not exhibited any neuroprotective effect | 250 µM | 45 µM
CC[C@H](CO)Nc1nc(OCc2ccccc2)c2ncn(C(C)C)c2n1 [O^6-(R)-roscovitine] | – | – | – | – | – | – | – | – | – | – | – | > 1000 µM | 700 µM | 100 µM | no significant neuroprotective effect; also recorded: did not exhibited any neuroprotective effect | – | 250 µM | 200 µM
